Data reported in patent publication US11149054B2, “Oxysterols and methods of use thereof” (Sage Therapeutics, Inc., priority 2016, dated 2021).
Like-named read-outs stand apart in the source and are kept apart here.

Columns and labels:
[1] = biological target: GlunN1/GluN2A glutamate receptors (Homo sapiens (Human), UniProt Q05586+Q12879); assay: Whole-cell patch clamp of mammalian cells (Ionworks Barracuda), positive allosteric modulation, GluN1/GluN2A; assay type: cell-based
Method: (§1) The measurements were performed using Ion Works Barracuda platform following this procedure:
(§2) Electrophysiological Procedures:
(§3) • a) Intracellular solution (mM): 50 mM CsCl, 90 mM CsF, 2 mM MgCl2, 5 mM EGTA, 10 mM HEPES. Adjust to pH 7.2 with CsOH. • b) Extracellular solution, HB-PS (composition in mM): NaCl, 137; KCl, 1.0; CaCl2), 5; HEPES, 10; Glucose, 10; pH adjusted to 7.4 with NaOH (refrigerated until use). • c) Holding potential: −70 mV, potential during agonist/PAM application: −40 mV. Recording Procedure: • a) Extracellular buffer will be loaded into the PPC plate wells (11 μL per well). Cell suspension will be pipetted into the wells (9 μL per well) of the PPC planar electrode. • b) Whole-cell recording configuration will be established via patch perforation with membrane currents recorded by on-board patch clamp amplifiers. • c) Two recordings (scans) will be performed. First, during pre-application of test article alone (duration of pre-application—[…]) and second, during test articles and agonist (EC20 L-glutamate and 30 μM glycine) co-application to detect positive modulatory effects of the test article. […] Potentiating Effect of Positive Allosteric Modulators (PAM) on the Channel
(§4) PAM concentration-response data will be fitted to an equation of the form: % Activation=% L-glutamate EC20+{(% MAX−% L-glutamate EC20)/[1+([Test]/EC50)^N]}, where [Test] will be the concentration of PAM (test article), EC50 will be the concentration of PAM producing half-maximal activation, N will be the Hill coefficient, % L-glutamate EC20 will be the percentage of the current Elicited with L-glutamate EC20, % MAX is the percentage of the current activated with the highest dose of PAM co-admitted with L-glutamate EC20 and % Activation will be the percentage of the current elicited with L-glutamate EC10-30 at each PAM concentration. The maximal amplitude of the evoked currents are measured and defined as Peak Current Amplitude (PCA).

[2] = biological target: GluN2B glutamate receptors (Homo sapiens (Human), UniProt Q05586+Q13224); assay: Whole-cell patch clamp of mammalian cells (Ionworks Barracuda), positive allosteric modulation, GluN2B; assay type: cell-based; conditions: for Emax: read-out: Avg Emax 2B (%)
GluN2B glutamate receptors, sequence (Q13224 27-1484, other chains not shown): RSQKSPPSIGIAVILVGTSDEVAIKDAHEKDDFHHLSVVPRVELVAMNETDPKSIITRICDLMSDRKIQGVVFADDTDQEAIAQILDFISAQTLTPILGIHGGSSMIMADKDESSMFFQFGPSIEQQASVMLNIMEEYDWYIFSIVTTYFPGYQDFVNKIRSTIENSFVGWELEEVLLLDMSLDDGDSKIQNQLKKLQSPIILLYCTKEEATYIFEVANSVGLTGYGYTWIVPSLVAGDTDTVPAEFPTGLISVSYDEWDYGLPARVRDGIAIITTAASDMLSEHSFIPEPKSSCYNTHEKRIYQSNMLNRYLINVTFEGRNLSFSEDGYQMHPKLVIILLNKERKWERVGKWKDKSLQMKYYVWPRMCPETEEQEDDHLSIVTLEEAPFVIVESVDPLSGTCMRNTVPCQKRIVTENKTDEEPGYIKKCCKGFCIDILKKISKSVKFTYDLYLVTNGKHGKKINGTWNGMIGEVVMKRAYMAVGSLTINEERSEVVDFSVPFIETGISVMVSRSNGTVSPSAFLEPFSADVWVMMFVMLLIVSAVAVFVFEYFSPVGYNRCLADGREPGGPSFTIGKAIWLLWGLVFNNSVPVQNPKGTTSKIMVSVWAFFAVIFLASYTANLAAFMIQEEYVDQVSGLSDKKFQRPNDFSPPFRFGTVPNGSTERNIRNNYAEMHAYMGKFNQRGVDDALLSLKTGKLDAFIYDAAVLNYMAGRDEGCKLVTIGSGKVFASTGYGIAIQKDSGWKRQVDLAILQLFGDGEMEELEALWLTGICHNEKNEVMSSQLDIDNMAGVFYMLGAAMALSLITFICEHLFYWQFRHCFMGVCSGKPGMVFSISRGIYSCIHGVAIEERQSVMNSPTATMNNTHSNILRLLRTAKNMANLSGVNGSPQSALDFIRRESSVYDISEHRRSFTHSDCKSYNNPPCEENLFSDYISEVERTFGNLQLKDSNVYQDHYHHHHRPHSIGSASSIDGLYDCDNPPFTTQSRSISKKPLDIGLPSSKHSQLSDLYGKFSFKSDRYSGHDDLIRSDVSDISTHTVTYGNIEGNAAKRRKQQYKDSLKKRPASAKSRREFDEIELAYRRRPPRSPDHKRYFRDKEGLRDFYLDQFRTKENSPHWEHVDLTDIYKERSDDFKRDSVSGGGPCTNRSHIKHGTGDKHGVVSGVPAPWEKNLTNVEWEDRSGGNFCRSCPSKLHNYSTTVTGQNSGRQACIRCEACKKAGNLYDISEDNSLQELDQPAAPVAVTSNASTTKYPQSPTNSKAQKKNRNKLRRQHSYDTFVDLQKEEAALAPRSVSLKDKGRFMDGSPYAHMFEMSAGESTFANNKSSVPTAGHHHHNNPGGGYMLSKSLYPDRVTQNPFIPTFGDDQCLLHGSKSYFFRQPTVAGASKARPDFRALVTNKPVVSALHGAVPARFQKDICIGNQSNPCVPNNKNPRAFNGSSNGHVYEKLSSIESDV
Method: as §1, §2, §3, §4

[3] = HEK293, read-out: Avg Emax 2A (%)
[4] = HEK293 cells, % potentiation of current elicited with EC20 L-glutamate and 30 μM glycine, read-out: Avg Emax 2A (%)
[5] = % potentiation of current elicited with EC20 L-glutamate and 30 μM glycine
[6] = HEK293 cells, co-application with EC20 L-glutamate and 30 μM glycine, 8-point concentration-response, read-out: Avg EC50 2A
[7] = co-application with EC20 L-glutamate and 30 μM glycine, 8-point concentration-response, read-out: Avg EC50 2B

GlunN1/GluN2A glutamate receptors, sequence (Q12879 23-1464, other chains not shown): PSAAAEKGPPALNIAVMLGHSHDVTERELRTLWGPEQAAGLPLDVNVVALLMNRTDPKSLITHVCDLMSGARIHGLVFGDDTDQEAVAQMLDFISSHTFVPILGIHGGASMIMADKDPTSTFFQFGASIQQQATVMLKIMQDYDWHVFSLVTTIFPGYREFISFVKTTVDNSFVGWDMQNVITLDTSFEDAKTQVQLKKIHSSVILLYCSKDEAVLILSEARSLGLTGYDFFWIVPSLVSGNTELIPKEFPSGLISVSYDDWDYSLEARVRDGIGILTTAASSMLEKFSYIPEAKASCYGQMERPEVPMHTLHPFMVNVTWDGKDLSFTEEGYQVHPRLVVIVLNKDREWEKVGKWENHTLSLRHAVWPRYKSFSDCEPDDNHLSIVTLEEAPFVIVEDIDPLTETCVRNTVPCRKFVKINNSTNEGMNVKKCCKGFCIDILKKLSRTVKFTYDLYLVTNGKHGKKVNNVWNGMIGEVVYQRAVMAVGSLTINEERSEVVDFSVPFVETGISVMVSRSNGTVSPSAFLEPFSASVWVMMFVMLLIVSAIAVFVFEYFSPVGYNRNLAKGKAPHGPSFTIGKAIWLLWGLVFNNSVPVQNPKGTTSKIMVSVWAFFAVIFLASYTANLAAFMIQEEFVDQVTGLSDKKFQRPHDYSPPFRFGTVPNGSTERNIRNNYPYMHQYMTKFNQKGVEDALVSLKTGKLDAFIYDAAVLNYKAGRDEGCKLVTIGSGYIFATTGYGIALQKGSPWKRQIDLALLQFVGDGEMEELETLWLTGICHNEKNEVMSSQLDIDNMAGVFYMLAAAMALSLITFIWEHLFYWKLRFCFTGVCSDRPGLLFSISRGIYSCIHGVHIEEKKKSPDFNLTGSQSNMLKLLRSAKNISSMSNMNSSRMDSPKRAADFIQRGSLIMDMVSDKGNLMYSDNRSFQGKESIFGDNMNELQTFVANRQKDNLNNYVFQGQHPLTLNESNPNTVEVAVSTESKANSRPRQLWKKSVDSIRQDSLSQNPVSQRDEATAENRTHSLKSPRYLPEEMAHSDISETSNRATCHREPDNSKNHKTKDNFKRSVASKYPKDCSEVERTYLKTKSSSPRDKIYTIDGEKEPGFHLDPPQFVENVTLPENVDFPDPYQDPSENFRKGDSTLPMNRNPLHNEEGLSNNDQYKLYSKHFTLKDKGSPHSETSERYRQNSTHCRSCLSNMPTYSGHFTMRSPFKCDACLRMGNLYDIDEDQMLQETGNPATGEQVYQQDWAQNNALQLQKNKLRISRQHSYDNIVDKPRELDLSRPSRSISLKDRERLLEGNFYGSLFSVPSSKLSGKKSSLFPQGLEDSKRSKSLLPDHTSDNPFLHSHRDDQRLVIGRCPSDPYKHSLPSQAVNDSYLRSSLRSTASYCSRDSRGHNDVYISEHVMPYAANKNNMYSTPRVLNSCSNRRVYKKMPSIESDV

`CC[C@]1(O)CC[C@H]2C(=CC[C@@H]3[C@@H]2CC[C@]2(C)[C@@H]([C@H](C)CC[C@@H](O)C(C)(C)C)CC[C@@H]32)C1` [Compound 8379] showed an EC50 [1] of 73.4 nM, an Emax [1, 3] of 252% and an EC50 [2] of 78.1 nM. The Emax [2] was 359%.

`C[C@H](CC[C@](C)(O)C(F)(F)F)[C@H]1CC[C@H]2[C@@H]3CC=C4C[C@@](C)(O)CC[C@@H]4[C@H]3CC[C@]12C` [Compound 9062] gave an Emax [1, 3] of 66.5% and an Emax [2] of 52.2%.

Compound `CC[C@]1(O)CC[C@@]2(C)C(=CC[C@H]3[C@@H]4CC[C@H]([C@H](C)CC[C@@H](O)c5cccc(C#N)c5)[C@@]4(C)CC[C@@H]32)C1` [Compound 6997] has an EC50 [1] of 373 nM, an Emax [1, 4] of 327% and an EC50 [2] of 414 nM. The Emax [2, 5] was 315%.

With `C[C@H](CCCC1(O)CCC(F)(F)CC1)[C@H]1CC[C@H]2[C@@H]3CC[C@H]4C[C@](O)(C(F)(F)F)CC[C@]4(C)[C@H]3CC[C@]12C` [Compound 11786] the Emax [1, 4] was 152%, the EC50 [1, 6] was 584 nM and the Emax [2, 5] was 151%. It also gave an EC50 [2, 7] of 1010 nM.

In the case of `CC(C)[C@H](O)CCC[C@@H](C)[C@H]1CC[C@H]2[C@@H]3CC[C@H]4C[C@](O)(C(F)(F)F)CC[C@]4(C)[C@H]3CC[C@]12C` [Compound 11828], the EC50 [1] is reported as 147 nM, the Emax [1, 3] is reported as 142% and the EC50 [2] is reported as 76.9 nM. The Emax [2] was 114%.

Work on `CC(C)[C@H]1CC[C@](O)(CC[C@@H](C)[C@H]2CC[C@H]3[C@@H]4CC[C@H]5C[C@](O)(C(F)(F)F)CC[C@]5(C)[C@H]4CC[C@]23C)CC1` [Compound 4259] yielded an EC50 [1] of over 10000 nM, an Emax [1, 4] of -13.3% and an EC50 [2] of over 10000 nM. It also gave an Emax [2, 5] of 24.3%.

For `CC[C@]1(O)CC[C@H]2[C@@H](CC[C@@H]3[C@@H]2CC[C@]2(C)[C@@H]([C@H](C)CCC4(O)CC4)CC[C@@H]32)C1` [Compound 8127], the EC50 [1] was 543 nM, the Emax [1, 4] was 136% and the EC50 [2] was 571 nM. For the same compound, the Emax [2, 5] was 211%.

`C[C@H](CCC1(O)CCC2(CC1)CC2)[C@H]1CC[C@H]2[C@@H]3CC[C@H]4C[C@](O)(C(F)(F)F)CC[C@]4(C)[C@H]3CC[C@]12C` [Compound 4805] was tested, and the EC50 [1] was 356 nM, the Emax [1, 4] was 175% and the EC50 [2] was 362 nM. For the same compound, the Emax [2, 5] was 129%.

In the case of `C[C@H](CCC[C@@H](C)O)[C@H]1CC[C@H]2[C@@H]3CC[C@H]4C[C@](O)(C(F)(F)F)CC[C@]4(C)[C@H]3CC[C@]12C` [Compound 112], the Emax [1, 4] is reported as 92.6% and the Emax [2, 5] is reported as 151%.

In the case of `C[C@H](O)CC[C@@H](C)[C@H]1CC[C@H]2[C@@H]3CC=C4C[C@](O)(C(F)(F)F)CC[C@]4(C)[C@H]3CC[C@]12C` [Compound 2602], the EC50 [1] is reported as 289 nM, the Emax [1, 4] is reported as 163% and the EC50 [2] is reported as 279 nM. For the same compound, the Emax [2, 5] was 367%.

Compound `C[C@H](CC[C@@H](O)C(F)(F)F)[C@H]1CC[C@H]2[C@@H]3CC[C@H]4C[C@](O)(C(F)(F)F)CC[C@]4(C)[C@H]3CC[C@]12C` [Compound 5] has an EC50 [1] of 182 nM, an Emax [1, 4] of 619% and an EC50 [2] of 260 nM. For the same compound, the Emax [2, 5] was 455%.

In the case of `CC(C)[C@H](O)CC[C@@H](C)[C@H]1CC[C@H]2[C@@H]3CC[C@H]4C[C@@](C)(O)CC[C@@H]4[C@H]3CC[C@]12C` [Compound 1B75], the Emax [1, 4] is reported as 279% and the Emax [2, 5] is reported as 233%.

`C[C@H](CCC(O)c1ccccc1)[C@H]1CC[C@H]2[C@@H]3CC=C4C[C@@](C)(O)CC[C@]4(C)[C@H]3CC[C@]12C` (some centres unmarked) [Compound 356] gave an EC50 [1] of 415 nM, an Emax [1, 4] of 59.6% and an EC50 [2] of 923 nM. The Emax [2, 5] was 156%.

For `CC[C@@H](O)CC[C@@H](C)[C@H]1CC[C@H]2[C@@H]3CC=C4C[C@](O)(CC)CC[C@@H]4[C@H]3CC[C@]12C` [Compound 8584], the EC50 [1] was 332 nM, the Emax [1, 4] was 284% and the EC50 [2] was 244 nM. The Emax [2, 5] was 363%.

For `C[C@H](CCC1(O)CCC(F)(F)CC1)[C@H]1CC[C@H]2[C@@H]3CC[C@H]4C[C@](O)(C(F)(F)F)CC[C@]4(C)[C@H]3CC[C@]12C` [Compound 8], the EC50 [1] was 446 nM and the EC50 [2] was 372 nM.

`C[C@H](CCC1(O)CCC(C)(C)CC1)[C@H]1CC[C@H]2[C@@H]3CC[C@@H]4C[C@](O)(C(F)(F)F)CC[C@]4(C)[C@H]3C(=O)C[C@]12C` [Compound 5294] gave an Emax [1, 4] of 32.4% and an Emax [2, 5] of 13.9%.

`CC[C@H](O)CCC[C@@H](C)[C@H]1CC[C@H]2[C@@H]3CC=C4C[C@](O)(CC)CC[C@@H]4[C@H]3CC[C@]12C` [Compound 10949] gave an Emax [1, 3] of 97.4% and an Emax [2] of 147%.

With `CC[C@]1(O)CC[C@@]2(C)C(=CC[C@H]3[C@@H]4CC[C@H]([C@H](C)CC[C@@H](O)c5cccc(F)c5)[C@@]4(C)CC[C@@H]32)C1` (single isomer, unassigned) [Compound 6895] the EC50 [1] was 174 nM, the Emax [1, 4] was 241% and the EC50 [2] was 329 nM. It also gave an Emax [2, 5] of 354%.

For `CCC(O)CCC[C@@H](C)[C@H]1CC[C@H]2[C@@H]3CC=C4C[C@](O)(CC)CC[C@@H]4[C@H]3CC[C@]12C` (some centres unmarked) [Compound 10673], the Emax [1, 3] was 216% and the Emax [2] was 214%.

In the case of `CC[C@]1(O)CC[C@@]2(C)C(=CC[C@H]3[C@@H]4CC[C@H]([C@H](C)CCC(O)Cc5ccccc5)[C@@]4(C)CC[C@@H]32)C1` (some centres unmarked) [Compound 6010], the EC50 [1] is reported as 1100 nM, the Emax [1, 4] is reported as 239% and the EC50 [2] is reported as 1570 nM. The Emax [2, 5] was 184%.

In the case of `C[C@H](CCC1(O)CCOC1)[C@H]1CC[C@H]2[C@@H]3CC[C@H]4C[C@](O)(C(F)(F)F)CC[C@]4(C)[C@H]3CC[C@]12C` (some centres unmarked) [Compound 1967], the EC50 [1] is reported as 171 nM, the Emax [1, 4] is reported as 347% and the EC50 [2] is reported as 113 nM. It also gave an Emax [2, 5] of 374%.

Compound `CC[C@]1(O)CC[C@@]2(C)C(=CC[C@H]3[C@@H]4CC[C@H]([C@H](C)CC[C@@H](O)c5ccc(F)cc5)[C@@]4(C)CC[C@@H]32)C1` [Compound 7147] has an Emax [1, 3] of 200%, an EC50 [2] of 91.7 nM and an Emax [2] of 242%.

With `C[C@H](CCC(O)C1CCC1)[C@H]1CC[C@H]2[C@@H]3CC[C@H]4C[C@](O)(C(F)(F)F)CC[C@]4(C)[C@H]3CC[C@]12C` (some centres unmarked) [Compound 7] the Emax [1, 4] was 516%, the EC50 [1, 6] was 300 nM and the Emax [2, 5] was 484%. The EC50 [2, 7] was 287 nM.

`CC[C@]1(O)CC[C@H]2C(=CC[C@@H]3[C@@H]2CC[C@]2(C)[C@@H]([C@H](C)CCC[C@H](O)C(F)(F)F)CC[C@@H]32)C1` [Compound 9567] showed an Emax [1, 4] of 104%, an EC50 [1, 6] of 328 nM and an Emax [2, 5] of 124%. The EC50 [2, 7] was 378 nM.

`CC[C@]1(O)CC[C@@]2(C)C(=CC[C@H]3[C@@H]4CC[C@H]([C@H](C)CC[C@@H](O)Cc5ccccc5)[C@@]4(C)CC[C@@H]32)C1` [Compound 6052] gave an EC50 [1] of 426 nM, an Emax [1, 4] of 102% and an EC50 [2] of 232 nM. The Emax [2, 5] was 92.2%.

With `CC[C@]1(O)CC[C@H]2C(=CC[C@@H]3[C@@H]2CC[C@]2(C)[C@@H]([C@H](C)CCC[C@](C)(O)C(F)(F)F)CC[C@@H]32)C1` [Compound 10557] the Emax [1, 4] was 190%, the EC50 [1, 6] was 287 nM and the Emax [2, 5] was 202%. It also gave an EC50 [2, 7] of 192 nM.

In the case of `C[C@H](CC[C@H](O)C(C)(C)C)[C@H]1CC[C@H]2[C@@H]3CC[C@H]4C[C@](O)(C(F)(F)F)CC[C@]4(C)[C@H]3CC[C@]12C` [Compound 2184], the EC50 [1] is reported as 65.8 nM and the EC50 [2] is reported as 80 nM.

In the case of `C[C@H](CCCC(C)(C)O)[C@H]1CC[C@H]2[C@@H]3CC[C@H]4C[C@](O)(C(F)(F)F)CC[C@]4(C)[C@H]3CC[C@]12C` [Compound 5116], the Emax [1, 4] is reported as 185%, the EC50 [1, 6] is reported as 102 nM and the Emax [2, 5] is reported as 214%. The EC50 [2, 7] was 130 nM.

In the case of `C[C@H](CCC1(O)CCOCC1)[C@H]1CC[C@H]2[C@@H]3CC[C@H]4C[C@](O)(C(F)(F)F)CC[C@]4(C)[C@H]3CC[C@]12C` [Compound 11], the Emax [1, 4] is reported as 151% and the Emax [2, 5] is reported as 157%.

`CC[C@]1(O)CC[C@H]2C(=CC[C@@H]3[C@@H]2CC[C@]2(C)[C@@H]([C@H](C)CCCC(O)C(C)(C)C)CC[C@@H]32)C1` (some centres unmarked) [Compound 10012] showed an Emax [1, 4] of 154%, an EC50 [1, 6] of 790 nM and an Emax [2, 5] of 168%. The EC50 [2, 7] was 910 nM.
